The text below walks through data of publication PMC12311729, “Probing the Mechanism of L‑DOPA 2,3-Dioxygenase Using Synthetic Derivatives of 3,4-Dihydroxyhydrocinnamic Acid” (ACS Omega, 2025).

In general, Km refers to the concentration of substrate that gives half-maximal velocity.

On the set-up of series [1]: method as in Biochemistry 2021, 60, 32, 2492–2507. The conditions noted are these: percentage of L-DOPA; ref Biochemistry 2021, 60, 32, 2492–2507; cited from earlier work.
In series [2] the target is L-DOPA 2,3-dioxygenase from S. lincolnensis (LmbB1) (Streptomyces lincolnensis, UniProt Q54354). Set-up: method as in Biochemistry 2021, 60, 32, 2492–2507. The conditions noted are these: percentage of L-DOPA; ref Biochemistry 2021, 60, 32, 2492–2507; cited from earlier work.
On the set-up of series [3]: method as in Biochemistry 2021, 60, 32, 2492–2507. The conditions noted are these: percentage of L-DOPA; ref Biochemistry 2021, 60, 32, 2492–2507; cited from earlier work. This is another data set of the same source.
Series [4] can be described thus: Determination of pKa values by spectrophotometric titration. The conditions noted are these: first catecholic deprotonation; determined spectroscopically from pH 3 to 12.5.
A short description of series [5]: Cyclic voltammetry (redox potentials on a GCE). It counts as physicochemical. The conditions noted are these: GCE (d = 2 mm). From the text: Reduction and oxidation potentials were experimentally performed by cyclic voltammetry (CV) at biological pH 7.4, as previously described. All samples were run on a CH Instruments 600E Potentiostat in a one-compartment cell equipped with a three-electrode system arrangement. The three-electrode system included a saturated calomel electrode as the reference electrode, a platinum wire as the auxiliary electrode, and a glassy carbon electrode (GCE, d = 2 mm) as the working electrode. The GCE was polished between each sample scan with an aqueous slurry of alumina powder on a microcloth pad. The electrodes were rinsed with distilled water prior to the next scan. All scans were conducted under nitrogen for oxygen displacement and at room temperature (rt, 25 ± 1 °C). All samples were prepared as close to the scan as possible (approximately 2 min each). Each sample (5 mL) contained 0.1 mM catecholic substrate and 1 μM DMSO in 0.1 M phosphate buffer at a pH of 7.4 or 6.0. […] The cyclic voltammograms for the compounds at both pH 6.0 and 7.4 are available in Figures S40–S51.

Details of series [6]: method as in Biochemistry 2021, 60, 32, 2492–2507. The conditions noted are these: percentage of L-DOPA; ref Biochemistry 2021, 60, 32, 2492–2507; cited from earlier work. The source holds these as a separate data set.
Substrate in series [7]: N#Cc1cc(O)c(O)cc1CCC(=O)O
As to the kind of experiment: UV-visible steady-state assay of L-DOPA 2,3-dioxygenase (LmbB1). The class given is biochemical, Streptomyces lincolnensis. The conditions noted are these: other: S. lincolnensis enzyme, pH 7.5, 22 °C. As for the experimental part:
(§1) Purified, reconstituted L-DOPA 2,3-dioxygenases were assessed for activity by monitoring the cleavage of catecholic substrates using UV–visible spectroscopy. 3,4-Dihydroxyhydrocinnamic acid (DHHCA, 3) was purchased from Sigma-Aldrich. 6-CyanoDHHCA (5) and 6-bromoDHHCA (4) were synthesized as described above.
(§2) Molecular oxygen (AirGas) was bubbled directly into the reaction buffer through a glass-bonded silica gas diffuser (Bubblemac Industries, Inc.) or as a gas mixture blended with air (AirGas). Solutions were bubbled with oxygen for several minutes prior to use and for the duration of the experiment. To determine the K M for oxygen (i.e., K MO2), L-DOPA 2,3-dioxygenases (0.25–4.0 μM) were reacted with a saturating concentration of the catecholic substrate DHHCA/6-X-DHHCA derivatives (2–10× the K M sufficient to achieve k cat) and various oxygen concentrations (21–100% or 270–1300 μM at 22 °C). The concentration of oxygen was varied by changing the percentage of oxygen in the blend using a galvanic oxygen sensor and oxygen monitor (AirGas) and then bubbling solutions, as described above. […]
(§3) The extinction coefficients for steady-state cleavage products of DHHCA and synthetic 6-X-DHHCA derivatives were determined by reacting various concentrations of DHHCA/6-X-DHHCA derivatives at 22 °C with a 10-fold stoichiometric excess of enzyme (quantified by Fe^II–see Reconstitution) in 50 mM HEPES buffer with 154 mM NaCl at pH 7.5, bubbled with 100% oxygen to a final concentration of 780–910 μM, depending on the volume of oxygenated buffer that comprised the reaction (60–70%). Substrate solutions were prepared from authentic synthetic standards using an analytical balance, and reactions were run to completion as assessed by the appearance of the steady-state product. The λmax and extinction coefficients of DHHCA, 6-cyanoDHHCA, and 6-bromoDHHCA were determined herein as ε380 = 40 740 ± 820 M^–1cm^–1, ε385 = 33 256 ± 484 M^–1cm^–1, and ε380 = 35 282 ± 1190 M^–1cm^–1, respectively (Figure S52). […]

Substrate in series [8]: O=C(O)CCc1cc(O)c(O)cc1Br
The series is described as above. It counts as biochemical, Streptomyces lincolnensis. The conditions noted are these: other: S. lincolnensis enzyme, pH 7.5, 22 °C. As for the experimental part: as §1, §2, §3

Substrate in series [9]: O=C(O)CCc1ccc(O)c(O)c1
The description is as above. The class given is biochemical, Streptomyces lincolnensis. The conditions noted are these: other: S. lincolnensis enzyme, pH 7.5, 22 °C. As for the experimental part: as §1, §2, §3

Regarding `NCCc1ccc(O)c(O)c1` [Dopamine (DA, 2), dopamine], the “CSEV (Å^3) relative to L-DOPA x 100” value in series [1] is on record as 84%. Moreover, the “kSP, O2 (μM^-1 min^-1) at pH 7.5 relative to L-DOPA x 100 for LmbB1” value in series [2] is 6%. Moreover, the “E1/2 (mV) at pH 7.4 relative to L-DOPA x 100” value in series [3] is 58%. Besides, the pK a value in [4] came to 8.99 ± 0.05. In [5] (pH 6.0), the “(E p)a Oxidation” value was 354 mV, the “(E p)c Reduction” value is reported as 84 mV, the E1/2 is recorded as 219 mV and the Ipa/Ipc stood at 2.89. The ΔE p in [5] (pH 6.0) was 270 mV. In series [5] (pH 7.4), the “(E p)a Oxidation” value amounted to 178 mV, the “(E p)c Reduction” value is 54 mV, the E1/2 amounted to 116 mV and the Ipa/Ipc is reported as 1.32. The molecule further had a ΔE p in series [5] (pH 7.4) of 124 mV. The “Catecholic pKa value relative to L-DOPA x 100” value in series [6] was 102%.

B1: L-DOPA 2,3-dioxygenase from S. lincolnensis (LmbB1) (Streptomyces lincolnensis) (protein)
chain: MPSVKSMPPVSVHHVGVQTADLDNSISWYQEFFGCTVSWTLDTFSALTHSRLPGIERLAELRYGDVRFHHIGVKSGAAERSPAEANQFQHVCFAVGSPTELEAWRSRWLELYARGRWTFAVPERATDIDVDKDGVRSFYALDPNGLEYEFTYVPDGPR
B1: the Km in series [7] worked out at 131 ± 16 µM; in series [8] it was 205 ± 24 µM; in series [9], 922 ± 152 µM.
